Source: patent US10201558B2, “Compositions of selenoorganic compounds and methods of use thereof” (Alltech, Inc., priority 2014, dated 2019)

Columns and labels:
Format in all cases: cell-based, human
G6PC = assay: Western blot of G6PC protein in IMR-32 cells; details: 150 ppb, 24 hours
Protocol: (§1) IMR-32 cells were seeded on 6-well plates and then treated with control and various compounds for 6 hours and 24 hours, as described above. After treatments, cells were rinsed with ice-cold PBS and lysed in ice-cold RIPA buffer containing complete proteinase and phosphatase inhibitors (Thermo-Fisher Scientific, Waltham, Mass.) on ice for 30 min Cell lysates were collected using a cell scraper and transfer pipette and then centrifuged at 12000×g for 30 min at 4° C. to remove the DNA pellet and obtain the protein extract. Protein levels in the supernatant of these cell lysates were determined using the Pierce Micro-BCA protein assay kit (Thermo Scientific-Piece Biotechnology, Rockford, Ill.) according to the manufacturer's protocol […]
(§2) Positive signals on the membrane blots were detected using Amersham's enhanced chemiluminescence (ECL) Western Blotting Prime Detection reagents (GE healthcare Lifescience, Pittsburgh, Pa.). Images of these luminescence signals on the membrane blots were captured using the LI-COR Odyssey Fc Image system (Lincoln, Nebr.). […] Protein band densities in the Western blots were determined using the Li—COR Image studio software or NIH ImageJ software, and then normalized by ACTB protein level in each sample. […]

MAPK11 = assay: QRT-PCR of MAPK11 mRNA in control and FOXO4 KD IMR-32 cells; details: 24 hours
Protocol: (§3) IMR-32 cells were cultured on 12-well plates for 24 hours and then incubated with FOXO4 siRNA lentiviruses (SC-29650V, Santa Cruz) or control siRNA lentiviruses (sc-108080, Santa Cruz) in the presence of Polybrene (5 μg/ml, Santa Cruz) for 24 hours according to the manufacturer's protocol. These lentiviral siRNA-transfected cells were amplified in normal media for 3 days and then incubated with puromycin for 9-14 days to obtain the stable Control KD (stably transfected with the control siRNAs) and FOXO4KD (stably transfected with Foxo4 siRNAs) cells. These control and Foxo4 KD cells were subjected to cell survival, mitochondrial potential and RNA analysis.
(§4) Human IMR-32 cells were seeded on gelatinized 6-well (6.5×10^5 cells/well) or 24-well (1.3×10^5 cells/well) plates. Cells were treated with control (0 ppb) or various compounds for 6 hours or 24 hours. Total RNA from these cells was isolated using Trizol (Invitrogen) according to the manufacturer's protocol, and then incubated with DNase I to remove any potential contaminated genomic DNA. Then RNA samples were subjected to real-time PCR analysis using the Applied-Bioscience's RT kit and predesigned Taqman probes (Invitrogen), as described previously (Lan et al EMBO J 2003). The mRNA levels of UCP1, UCP2, UCP3, SLC25A27 (UCP4), SLC25A14 (UCP5), PSEN1, Nicastrin, GSK3B, MAPK11-14, PPARG, APOE, RCAN1, RCAN1.1, G6PC, INSR, IGF1R and FOXO4 were measured. Three to six samples were analyzed in each treatment group. Data were normalized by Actin B (ACTB) or Glyceraldehyde Phosphate Dehydrogenase (GAPDH) mRNA levels in each sample and are presented as mean±SEM of 3-6 samples.
Normal control cells and FOXO4KD cells were incubated with two doses of Compound C for 24 hours, and subjected to QRT-PCR analysis of the MAPK11-14 genes. The relative mRNA expression of all four MAPK genes in normal control IMR-32 cells was assessed. […] Data in Compound C-treated control and FOXO4 KD cells were normalized by their levels in control and FOXO4KD cells, respectively. Mean±SEM of indicated number of samples in the bar graphs. […]

NICASTRIN = assay: QRT-PCR of NICASTRIN mRNA in IMR-32 cells (normal, control KD, FOXO4 KD)
Protocol: as §3, §4
RNA samples were extracted, purified, and subjected to real-time PCR analysis using Applied-Bioscience's RT kit and Taqman probes (Invitrogen) as described previously in Example 4. Protein samples were also prepared from cell lysates and western blot analysis was performed as previously described in Example 4. Data are presented as mean±SEM of 3 protein samples and 4 RNA samples per group. The relative mRNA and protein expression levels of PSEN1 and NICASTRIN, were measured. All primary antibodies were purchased from Cell Signaling Inc., Beverly, Mass.
Expression of genes such as Nicastrin and GSK3B (FIGS. 3A, 3C, 3G-3I, 4A, 4F-4H) which are associated with early-onset AD pathogenesis was attenuated by Compound C. […] Therefore, GSK3B and Nicastrin likely are two direct downstream target genes of FOXO4 in neuronal cells in humans.

PSEN1 = assay: Western blot of PSEN1 protein in IMR-32 cells; details: 150 ppb, 24 hours
Protocol: as §1, §2

Row | SMILES | G6Pc protein levels (G6PC) | increase of G6Pc protein expression levels (G6PC; quantitative analysis) [fold] | MAPK11 mRNA levels (MAPK11; FOXO4KD cells, 75 ppb and 150 ppb) | MAPK11 mRNA levels (MAPK11; control KD cells, 75 ppb) | MAPK11 mRNA levels (MAPK11; control KD cells, 150 ppb) | NICASTRIN mRNA expression (NICASTRIN; FOXO4KD cells, 75 ppb and 150 ppb, 24 hours) | NICASTRIN mRNA expression, dose-response study (NICASTRIN; IMR-32 cells, 150 ppb, 24 hours) | NICASTRIN mRNA expression (NICASTRIN; IMR-32 cells, 6 hours) | NICASTRIN mRNA expression (NICASTRIN; IMR-32 cells, 24 hours) | NICASTRIN mRNA expression (NICASTRIN; control KD cells, 75 ppb and 150 ppb, 24 hours) | PSEN1 protein levels (PSEN1)
1 | C[Se]C[C@H]1O[C@@H](n2cnc3c(N)ncnc32)C(O)C1O (stereo in doubt) [Compound C, 5′-deoxy-5′-methylselenoadenosine] | visibly increased | ~3 | none of the mRNA levels of the four MAPK genes in FOXO4KD cells were significantly altered | significant decrease | significantly decreased | not significantly altered | significantly inhibit | trend towards reduced | significant decrease | inhibited | significant reduction
2 | C[Se]C[C@H](NC(=O)CC[C@H](N)C(=O)O)C(=O)O [Compound E, γ-L-glutamyl-Se-methyl-L-selenocysteine] | – | – | – | – | – | – | – | – | stimulated | – | –
